Source: patent publication US12012390B2, “Flavone compounds for the treatment and prophylaxis of hepatitis B virus disease” (priority 2018, dated 2024)

How the values were obtained:
[1] = test system: HBV in primary human hepatocytes (PHH); assay: Cryopreserved primary human hepatocytes (PHH) HBV infection assay; type: cell-based; settings: Hepatitis B virus, Hepatocyte, 216 h, HBV-infected cryopreserved PHH, 9 days post-compound treatment, extracellular HBsAg by CLIA; read-out: HBsAg IC50
How it was run: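 Cryopreserved PHH (5.8×10^4 cells/well) were infected with 5.8×10^6 HBV genome equivalents in 4% PEG8000/1% DMSO medium. Extracellular HBsAg was measured by CLIA and HBV DNA by qPCR, with IC50 from 4-parameter logistic fits.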

[2] = test system: HBeAg level (surrogate marker for cccDNA) in HepDES19 cells; assay: Engineered HepDES19 primary screen assay (HBeAg as surrogate marker for cccDNA); type: cell-based, HBV; settings: Hepatitis B virus, HepDES19, 120 h, read-out: IC50 (HBeAg) in HepDES19 primary screen assay, HepDES19 cells, 5 days incubation with compound, HBeAg by ELISA
How it was run: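 HepDES19 cells were induced by Tet withdrawal for 8 days, then exposed to half-log compound dilutions (1% DMSO) for 5 days at 37° C. HBeAg, a cccDNA surrogate, was measured by ELISA; viability by CCK-8. IC50 from 4-parameter logistic fit.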

`O=C(O)C1CC(OCCOc2ccc(-c3cc(=O)c4cccc(Cl)c4o3)cc2)C1` (centres unmarked) [Example 1, 3-[2-[4-(8-chloro-4-oxo-chromen-2-yl)phenoxy]ethoxy]cyclobutanecarboxylic acid] gave an IC50 [1] of 130 nM and an IC50 [2] of 140 nM.
